Among the data in ChEMBL document CHEMBL1201862, “PubChem BioAssay data set” (2004) are AC50, EC50 and IC50 values, retold here.

In general, AC50 refers to the concentration at which the activity in the assay is half-maximal.

Some targets named below: Cytochrome P450 2D6 (Homo sapiens, UniProt P10635); Cytochrome P450 3A4 (Homo sapiens, UniProt P08684); Cytochrome P450 2C9 (Homo sapiens, UniProt P11712).
The target in series [1] is T1, Replicative DNA helicase DnaB (Mycobacterium tuberculosis, UniProt P9WMR3).
T1 sequence (P9WMR3 whole entry): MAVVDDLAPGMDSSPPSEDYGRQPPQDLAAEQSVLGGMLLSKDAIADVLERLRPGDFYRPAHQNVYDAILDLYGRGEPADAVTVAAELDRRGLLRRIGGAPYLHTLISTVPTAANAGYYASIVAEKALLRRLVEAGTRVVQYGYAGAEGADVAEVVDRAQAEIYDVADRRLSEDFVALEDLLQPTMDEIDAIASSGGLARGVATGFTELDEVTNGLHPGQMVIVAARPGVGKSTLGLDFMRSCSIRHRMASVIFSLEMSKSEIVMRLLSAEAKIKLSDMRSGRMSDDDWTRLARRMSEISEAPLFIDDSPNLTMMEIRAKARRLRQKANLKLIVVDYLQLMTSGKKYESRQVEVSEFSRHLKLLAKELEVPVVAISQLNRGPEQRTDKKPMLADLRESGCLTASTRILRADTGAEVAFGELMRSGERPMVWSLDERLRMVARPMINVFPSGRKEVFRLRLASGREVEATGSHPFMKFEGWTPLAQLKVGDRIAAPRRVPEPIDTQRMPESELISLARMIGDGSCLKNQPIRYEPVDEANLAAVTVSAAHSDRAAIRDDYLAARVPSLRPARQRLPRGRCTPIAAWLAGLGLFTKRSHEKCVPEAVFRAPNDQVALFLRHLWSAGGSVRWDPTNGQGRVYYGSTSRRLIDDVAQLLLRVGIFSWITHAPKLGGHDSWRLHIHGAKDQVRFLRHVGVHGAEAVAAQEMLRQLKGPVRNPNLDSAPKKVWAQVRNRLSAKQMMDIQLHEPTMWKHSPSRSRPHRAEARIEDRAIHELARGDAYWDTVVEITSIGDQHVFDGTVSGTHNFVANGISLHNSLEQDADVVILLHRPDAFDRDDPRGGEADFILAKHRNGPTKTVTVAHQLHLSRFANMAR
Kind of series: DnaB intein splicing inhibitors, dose response, biochemical, cell-free fluorescence (AID 449749). Format: functional.

The next series has as its target T2, Protein RecA (Mycobacterium tuberculosis, UniProt P9WHJ3).
T2 sequence (P9WHJ3 whole entry): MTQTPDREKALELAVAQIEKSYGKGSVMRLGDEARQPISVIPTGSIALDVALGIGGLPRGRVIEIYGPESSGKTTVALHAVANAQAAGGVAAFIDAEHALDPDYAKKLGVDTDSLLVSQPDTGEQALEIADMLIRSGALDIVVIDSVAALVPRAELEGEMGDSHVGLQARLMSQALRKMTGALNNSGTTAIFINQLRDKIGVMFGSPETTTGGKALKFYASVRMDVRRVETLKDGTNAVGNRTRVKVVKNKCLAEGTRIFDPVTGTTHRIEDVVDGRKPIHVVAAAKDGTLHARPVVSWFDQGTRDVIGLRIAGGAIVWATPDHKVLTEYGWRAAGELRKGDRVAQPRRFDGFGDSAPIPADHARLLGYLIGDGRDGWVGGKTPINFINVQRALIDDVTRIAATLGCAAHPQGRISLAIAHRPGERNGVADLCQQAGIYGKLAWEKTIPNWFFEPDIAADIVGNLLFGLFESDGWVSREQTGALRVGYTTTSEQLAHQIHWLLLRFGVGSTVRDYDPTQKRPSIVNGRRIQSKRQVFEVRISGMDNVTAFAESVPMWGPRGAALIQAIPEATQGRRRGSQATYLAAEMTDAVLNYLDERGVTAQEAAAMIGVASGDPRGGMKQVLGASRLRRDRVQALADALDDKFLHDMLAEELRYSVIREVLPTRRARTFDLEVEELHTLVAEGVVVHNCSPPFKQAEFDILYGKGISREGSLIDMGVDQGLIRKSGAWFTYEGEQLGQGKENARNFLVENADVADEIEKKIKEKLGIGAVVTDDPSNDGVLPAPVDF
Kind of series: Fluorescence Cell-Free Homogeneous Dose Retest to Identify Inhibitors of RecA-Intein Splicing Activity. [Related pubchem assays (depositor defined):AID2097, AID2223, AID489010, AID492950]. Format: functional.

In a further series the target is T3, Cytochrome P450 1A2 (Homo sapiens, UniProt P05177).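 Also: PubChem cytochrome P450 panel assay, CYP1A2 panel member.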
T3 sequence (P05177 whole entry): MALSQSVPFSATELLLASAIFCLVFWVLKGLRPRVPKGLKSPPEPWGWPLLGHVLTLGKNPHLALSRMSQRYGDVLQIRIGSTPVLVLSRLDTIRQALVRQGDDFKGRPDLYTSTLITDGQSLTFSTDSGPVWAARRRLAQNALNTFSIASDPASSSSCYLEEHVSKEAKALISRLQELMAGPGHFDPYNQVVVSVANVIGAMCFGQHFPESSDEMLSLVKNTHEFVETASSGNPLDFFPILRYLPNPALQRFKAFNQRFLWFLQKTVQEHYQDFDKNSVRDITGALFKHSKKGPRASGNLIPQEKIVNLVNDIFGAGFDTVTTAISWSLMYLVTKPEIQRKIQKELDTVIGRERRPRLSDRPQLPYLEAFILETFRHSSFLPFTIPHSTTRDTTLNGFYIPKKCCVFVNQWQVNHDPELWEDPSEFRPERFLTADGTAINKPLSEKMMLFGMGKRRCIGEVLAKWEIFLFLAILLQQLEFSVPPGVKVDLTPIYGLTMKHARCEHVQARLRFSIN

A further series addresses Cytochrome P450 2C19 (Homo sapiens, UniProt P33261). Description: Cytochrome panel assay with activity outcomes. Panel member name: p450-cyp2c19 Compounds with AC50 equal or less than 10 uM are considered active. Format: functional.
The target of series [2] is T4, Corticotropin-releasing factor receptor 2/Corticotropin-releasing factor-binding protein (Homo sapiens, UniProt P24387+Q13324).
T4 sequence (Q13324 whole entry): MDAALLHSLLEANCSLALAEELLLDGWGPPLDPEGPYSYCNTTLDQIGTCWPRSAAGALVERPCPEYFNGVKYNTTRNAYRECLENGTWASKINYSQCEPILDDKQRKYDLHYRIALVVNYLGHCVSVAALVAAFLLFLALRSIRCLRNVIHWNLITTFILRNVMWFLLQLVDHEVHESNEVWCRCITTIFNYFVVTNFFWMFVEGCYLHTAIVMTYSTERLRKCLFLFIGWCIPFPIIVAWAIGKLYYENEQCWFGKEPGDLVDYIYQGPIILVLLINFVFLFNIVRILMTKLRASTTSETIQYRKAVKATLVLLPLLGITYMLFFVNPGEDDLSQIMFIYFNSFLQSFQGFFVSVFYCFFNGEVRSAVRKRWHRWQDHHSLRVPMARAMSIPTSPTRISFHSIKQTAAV
T4 sequence (P24387 whole entry): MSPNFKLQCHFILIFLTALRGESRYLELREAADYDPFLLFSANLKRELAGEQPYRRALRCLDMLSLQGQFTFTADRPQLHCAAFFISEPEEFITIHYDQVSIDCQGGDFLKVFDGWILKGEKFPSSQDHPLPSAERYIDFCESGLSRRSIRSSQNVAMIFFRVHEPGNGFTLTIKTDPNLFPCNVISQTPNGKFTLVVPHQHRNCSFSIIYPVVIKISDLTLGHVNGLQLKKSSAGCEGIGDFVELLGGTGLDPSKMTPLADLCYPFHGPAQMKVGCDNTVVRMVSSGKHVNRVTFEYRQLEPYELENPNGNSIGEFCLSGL
Kind of series: Dose Response confirmation of uHTS hits for small molecule antagonists of the CRF-binding protein and CRF-R2 receptor complex. The following applies: read-out: IC50_Mean. Format: functional.

In series [3] the target is T4, Corticotropin-releasing factor receptor 2/Corticotropin-releasing factor-binding protein. Kind of series: activators of CRF receptor 2 with binding protein – uHTS hits, confirmation (AID 602473). The format is functional. Particulars: read-out: EC50_Mean.
The next series in a line: cells. Format: functional.

Each structure is given as a SMILES string. Activity calls are given as the source filed them.

Cytochrome P450 2C9, sequence (P11712 whole entry): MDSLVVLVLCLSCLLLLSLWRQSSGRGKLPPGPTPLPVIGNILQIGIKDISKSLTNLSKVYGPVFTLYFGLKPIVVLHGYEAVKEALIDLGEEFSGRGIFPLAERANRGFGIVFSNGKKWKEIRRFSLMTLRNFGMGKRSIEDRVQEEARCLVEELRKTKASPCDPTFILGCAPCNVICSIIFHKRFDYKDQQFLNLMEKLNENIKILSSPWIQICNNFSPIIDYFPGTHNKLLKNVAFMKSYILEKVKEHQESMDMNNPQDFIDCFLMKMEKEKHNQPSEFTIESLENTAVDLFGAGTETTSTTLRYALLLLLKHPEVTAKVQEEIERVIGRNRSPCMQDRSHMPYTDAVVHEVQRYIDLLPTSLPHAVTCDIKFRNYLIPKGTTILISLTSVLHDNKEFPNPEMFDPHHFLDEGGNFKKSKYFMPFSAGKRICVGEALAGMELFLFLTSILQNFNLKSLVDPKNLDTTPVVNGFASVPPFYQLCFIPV
Cytochrome P450 2C19, sequence (P33261 whole entry): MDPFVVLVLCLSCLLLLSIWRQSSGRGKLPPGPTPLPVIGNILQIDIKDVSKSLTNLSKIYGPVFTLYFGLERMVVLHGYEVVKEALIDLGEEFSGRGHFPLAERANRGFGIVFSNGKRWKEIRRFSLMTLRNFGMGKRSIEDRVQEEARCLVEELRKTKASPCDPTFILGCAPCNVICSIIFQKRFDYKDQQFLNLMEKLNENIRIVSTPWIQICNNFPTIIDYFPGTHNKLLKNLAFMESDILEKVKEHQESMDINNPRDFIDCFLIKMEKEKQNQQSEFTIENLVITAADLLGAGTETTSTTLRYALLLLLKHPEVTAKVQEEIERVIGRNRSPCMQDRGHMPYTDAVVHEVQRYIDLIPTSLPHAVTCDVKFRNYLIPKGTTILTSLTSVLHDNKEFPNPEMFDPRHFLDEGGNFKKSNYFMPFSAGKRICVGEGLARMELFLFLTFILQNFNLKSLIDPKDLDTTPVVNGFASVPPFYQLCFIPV
Cytochrome P450 3A4, sequence (P08684 whole entry): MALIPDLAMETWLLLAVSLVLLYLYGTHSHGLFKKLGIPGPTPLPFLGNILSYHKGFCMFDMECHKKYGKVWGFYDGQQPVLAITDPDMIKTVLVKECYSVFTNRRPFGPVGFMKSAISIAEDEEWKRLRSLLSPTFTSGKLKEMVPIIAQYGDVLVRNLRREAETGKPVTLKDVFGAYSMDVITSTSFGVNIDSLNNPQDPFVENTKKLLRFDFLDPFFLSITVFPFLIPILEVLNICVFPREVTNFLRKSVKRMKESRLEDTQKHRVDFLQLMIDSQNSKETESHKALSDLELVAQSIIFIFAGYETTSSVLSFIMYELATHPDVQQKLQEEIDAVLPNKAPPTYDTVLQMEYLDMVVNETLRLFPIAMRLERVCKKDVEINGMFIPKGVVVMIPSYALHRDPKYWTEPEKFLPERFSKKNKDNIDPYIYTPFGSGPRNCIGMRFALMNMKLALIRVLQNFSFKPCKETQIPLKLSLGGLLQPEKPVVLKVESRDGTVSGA
Cytochrome P450 2D6, sequence (P10635 whole entry): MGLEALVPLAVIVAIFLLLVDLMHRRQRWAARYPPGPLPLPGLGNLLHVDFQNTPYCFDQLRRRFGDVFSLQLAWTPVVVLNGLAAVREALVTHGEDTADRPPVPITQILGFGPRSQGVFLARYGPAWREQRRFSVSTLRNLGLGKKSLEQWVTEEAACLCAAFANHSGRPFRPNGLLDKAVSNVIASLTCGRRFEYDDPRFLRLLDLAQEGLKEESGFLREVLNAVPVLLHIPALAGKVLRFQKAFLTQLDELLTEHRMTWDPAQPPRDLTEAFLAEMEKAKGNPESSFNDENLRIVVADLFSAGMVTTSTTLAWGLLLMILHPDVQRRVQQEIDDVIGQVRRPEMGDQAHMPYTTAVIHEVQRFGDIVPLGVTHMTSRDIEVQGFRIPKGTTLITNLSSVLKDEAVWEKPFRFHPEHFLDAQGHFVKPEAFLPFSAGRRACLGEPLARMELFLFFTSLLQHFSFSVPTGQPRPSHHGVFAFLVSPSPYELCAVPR

`CCOc1ccccc1N1CCN(C(=O)c2ccc(-c3ccc(OC(C)=O)cc3)cc2)CC1`: the half-maximal activity concentration (AC50) in series [1] was 2.31 µM (active). At Protein RecA, the EC50 is 58.4 µM (active).
As for `c1ccc(N2CC[C@@]3(CCCNC3)C2)cc1`, the AC50 at Cytochrome P450 2D6 was 10 µM (inconclusive); at Cytochrome P450 1A2, 39.8 µM (inconclusive); at Cytochrome P450 3A4, 20 µM (inconclusive).
On to `C=CCOc1c2ccc(C(=O)NC3CCCc4ccccc43)cc2nn1C` (stereo not drawn), for which the AC50 on Cytochrome P450 2D6 was 22.4 µM (inconclusive); at Cytochrome P450 1A2, 15.8 µM (inconclusive).
With `COc1ccc(-c2cnnc(CCCn3ccnc3-c3ccccc3)n2)cc1`, the AC50 is 0.0126 µM (inconclusive) at Cytochrome P450 2C9 and 7.94 µM (inconclusive) at Cytochrome P450 2C19 (read-out: AC50).
In the case of `O=C(c1ccc(Cl)cc1)n1cnc2ccccc21`, the AC50 in series [1] is 7.49 µM (active). Moreover, the EC50 on Protein RecA is 8.13 µM (active).
Regarding `CCC(C)NC(=O)c1ccccc1NC(=O)Nc1ccccc1` (stereo not drawn), the concentration at half-maximal activity (AC50) at Cytochrome P450 2C9 was 15.8 µM (inconclusive); on Cytochrome P450 1A2 it was 3.16 µM (inconclusive).
Regarding `CNc1ncncc1-c1ccccc1OC`, the AC50 on Cytochrome P450 1A2 was 1.58 µM (inconclusive); at Cytochrome P450 3A4 it was 0.251 µM (inconclusive).
Consider `O=c1c2ccccc2nc(N2CCCC2)n1-c1ccc(Cl)cc1`, for which the concentration at half-maximal activity (AC50) is 10 µM (inconclusive) at Cytochrome P450 2D6 and 1.26 µM (inconclusive) on Cytochrome P450 2C19 (read-out: AC50). In addition, in series [2], the IC50 was > 47.1 µM (inactive). The EC50 in series [3] was > 53 µM (inactive).
Regarding `CCc1ccc(N(C(=O)CNC(=O)c2cccs2)C(C(=O)NC(C)(C)C)c2cc(OC)c(OC)c(OC)c2)cc1` (stereo not drawn), the figures for the AC50 at Cytochrome P450 2C9 and on Cytochrome P450 2C19 (read-out: AC50) were 28.2 µM (inconclusive) and 0.00794 µM (inconclusive), respectively.
In the case of `N#CC(c1ccccc1F)(c1ncc(C(F)(F)F)cc1Cl)N1CCOCC1` (stereo not drawn), the AC50 at Cytochrome P450 2C9 is 31.6 µM (inconclusive); at Cytochrome P450 1A2, 25.1 µM (inconclusive); on Cytochrome P450 3A4, 22.4 µM (inconclusive).
On to `Cc1cc(C)cc(C(=O)OC2C[C@H]3CC[C@@H](C2)N3C)c1` (stereo partly drawn), for which the AC50 on Cytochrome P450 2C19 (read-out: AC50) is 39.8 µM (inconclusive); on Cytochrome P450 1A2, 25.1 µM (inconclusive).
As for `Cn1cnnc1SCC(=O)OCN1C(=O)c2ccccc2C1=O`, the AC50 is 10 µM (inconclusive) at Cytochrome P450 2C19 (read-out: AC50) and 25.1 µM (inconclusive) on Cytochrome P450 1A2.
In the case of `CCN1C(=O)C(O)(CC(=O)/C=C/C=C/c2ccccc2)c2ccccc21` (stereo not drawn), the AC50 was 0.141 µM (inconclusive) on Cytochrome P450 2C9, 35.5 µM (inconclusive) at Cytochrome P450 2C19 (read-out: AC50) and 17.8 µM (inconclusive) at Cytochrome P450 3A4.
On to `O=[N+]([O-])c1ccc2c(c1)N=C1O[C@H](c3ccc([C@H]4OC5=Nc6cc([N+](=O)[O-])ccc6NC5=C4O)cc3)C(O)=C1N2`, for which the half-maximal activity concentration (AC50) on Cytochrome P450 1A2 and at Cytochrome P450 3A4 was 3.16 µM (inconclusive) each time.
Take `O=C(CCNc1cccc(Cl)c1)c1cccs1`: the values for the AC50 at Cytochrome P450 2D6 and at Cytochrome P450 2C9 were 22.4 µM (inconclusive) and 20 µM (inconclusive), respectively. For the same compound, in “cells”, the IC50 was 20 µM (active).
On to `O=c1c(-c2cc(F)cc(F)c2)nc2cnc(N3CCNCC3)nc2n1Cc1cccs1`, for which the values for the concentration at half-maximal activity (AC50) at Cytochrome P450 2C19 (read-out: AC50) and on Cytochrome P450 1A2 were 39.8 µM (inconclusive) and 2.51 µM (inconclusive), respectively.
As to `CCOC(=O)Cc1n[nH]c2c1C(c1ccoc1)C(C#N)=C(N)O2` (stereo not drawn), the AC50 in series [1] was 18.4 µM (active). Also, the EC50 on Protein RecA was 3.42 µM (active).
In the same order, the values of `COc1cccc(OC(=O)CSc2nnc(-c3ccccc3Br)o2)c1` are 3.09 µM (active) and 5.7 µM (active).
For the compound `CCCC1CCC(c2ccc(C(N)=O)cc2)CC1` (stereo not drawn), the AC50 at Cytochrome P450 2C9 is 0.0158 µM (inconclusive); at Cytochrome P450 2C19, “inconclusive”.
For the compound `COc1ccc(-n2c3c(c(=O)[nH]c2=O)C(C(F)(F)F)(C(F)(F)F)NC(CC(C)C)=N3)cc1`, the AC50 at Cytochrome P450 2C9 is 28.2 µM (inconclusive); at Cytochrome P450 2C19 (read-out: AC50), 10 µM (inconclusive); at Cytochrome P450 1A2, 39.8 µM (inconclusive); at Cytochrome P450 3A4, 17.8 µM (inconclusive).
Regarding `O=C(c1cn(-c2ccccc2)nc1-c1cccs1)N1CCOCC1`, the half-maximal activity concentration (AC50) at Cytochrome P450 2C9 and on Cytochrome P450 2C19 (read-out: AC50) was 39.8 µM (inconclusive) in each case.
For the compound `C[C@H]1CCCC=CC2C[C@H](O)C[C@@H]2[C@H](O)/C=C\C(=O)O1` (stereo partly drawn), the concentration at half-maximal activity (AC50) was 15.8 µM (inconclusive) on Cytochrome P450 2C9, 15.8 µM (inconclusive) on Cytochrome P450 1A2 and 31.6 µM (inconclusive) on Cytochrome P450 3A4.
For the compound `O=C(CNC(=O)c1ccccn1)N/N=C/c1ccccc1`, the AC50 at Cytochrome P450 2C19 (read-out: AC50) was 17.8 µM (inconclusive).
With `COc1cccc(/C=N\NC(=O)c2cc(OCC(F)(F)F)ccc2OCC(F)(F)F)c1`, the half-maximal activity concentration (AC50) was 0.891 µM (inconclusive) on Cytochrome P450 2C19 (read-out: AC50) and 35.5 µM (inconclusive) on Cytochrome P450 3A4.
Turning to `CCSc1ncc(/C=N/Nc2ccc(F)cc2)n1C`, the AC50 at Cytochrome P450 2C19 (read-out: AC50) was 0.0794 µM (inconclusive); on Cytochrome P450 3A4 it was 1.58 µM (inconclusive).
